Experimental findings from patent EP1614683B1, “Indazole compounds and pharmaceutical compositions for inhibiting protein kinases, and methods for their use” (priority 1999, dated 2001) are described below.

The test system of assay [1] is human umbilical vein endothelial cells (HUVEC). Nature of the assay: HUVEC proliferation assay (VEGF-stimulated, MTT). In kind it is cell-based. The settings on record: Homo sapiens, HUVEC, Table 1; + albumin; read-out: HUVEC + albumin IC50. The method, then:
This assay determines the ability of a test compound to inhibit the growth factor-stimulated proliferation of human umbilical vein endothelial cells ("HUVEC"). HUVEC cells (passage 3-4, Clonetics, Corp.) were thawed into EGM2 culture medium (Clonetics Corp) in T75 flasks. Fresh EGM2 medium was added to the flasks 24 hours later. Four or five days later, cells were exposed to another culture medium (F12K medium supplemented with 10% fetal bovine serum (FBS), 60 µg/mL endothelial cell growth supplement (ECGS), and 0.1 mg/mL heparin). Exponentially-growing HUVEC cells were used in experiments thereafter. Ten to twelve thousand HUVEC cells were plated in 96-well dishes in 100 µl of rich, culture medium (described above). The cells were allowed to attach for 24 hours in this medium. The medium was then removed by aspiration and 105 µl of starvation media (F12K+1% FBS) was added to each well. After 24 hours, 15 µl of test agent dissolved in 1% DMSO in starvation medium or this vehicle alone was added into each treatment well; the final DMSO concentration was 0.1%. One hour later, 30 µl of VEGF (30 ng/mL) in starvation media was added to all wells except those containing untreated controls; the final VEGF concentration was 6 ng/mL. Cellular proliferation was quantified 72 hours later by MTT dye reduction, at which time cells were exposed for 4 hours MTT (Promega Corp.).

The next assay concerns the target human FGF-R1 (Homo sapiens, UniProt P11362, C488A/C584S/L457V). Nature of the assay: FGF-R spectrophotometric assay. The class given is biochemical. The following applies: read-out: FGF-P* (% inhibition). The method, then: The spectrophotometric assay was carried out as described above for VEGF-R2, except for the following changes in concentration: FGF-R = 50 nM, ATP = 2 mM, and poly(E4Y1) =15 mM.

The target of assay [2] is unphosphorylated VEGF-R2Δ50 (Homo sapiens, UniProt P35968, DEL940-989/E990V). Description: biochemical. The settings on record: for inhibition at 0.05 µM: read-out: FLVK ** (% inhibition); for inhibition at 1 µM: read-out: FLVK* (% inhibition).
Sequence of unphosphorylated VEGF-R2Δ50 (P35968 with tags, fused parts or gaps DEL940-989/E990V limits assumed): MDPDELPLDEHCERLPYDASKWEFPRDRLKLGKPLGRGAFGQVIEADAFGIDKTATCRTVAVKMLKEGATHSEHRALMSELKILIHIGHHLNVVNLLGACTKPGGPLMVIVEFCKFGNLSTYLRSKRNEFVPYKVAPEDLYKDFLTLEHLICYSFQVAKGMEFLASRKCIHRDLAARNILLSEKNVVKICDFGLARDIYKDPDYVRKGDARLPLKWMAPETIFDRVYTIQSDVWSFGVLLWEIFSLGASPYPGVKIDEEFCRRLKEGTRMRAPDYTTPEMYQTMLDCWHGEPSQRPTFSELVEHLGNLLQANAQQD
In a further assay the target is LCK tyrosine kinase (Homo sapiens, UniProt P06239, C224D/P223M). Description: LCK spectrophotometric assay. In kind it is biochemical. The settings on record: Table 1; compound concentration 1 µM; read-out: Lck-P* (% inhibition). The method, then:
The spectrophotometric assay was carried out as described above for VEGF-R2, except for the following changes in concentration: LCK = 60 nM, MgCl2 = 0 mM, poly(E4Y1) = 20 mM.

Setting [3] is: Table 1, compound concentration 1 µM.

By pIC50 is commonly meant −log10 of the IC50, conventionally taken in molar units. As a reminder, the inhibition is how much of the control response was suppressed.

pIC50: −log10 of the molar value. Like-named read-outs stand apart in the source and are kept apart here.

Sequence of human FGF-R1 (P11362 456-766 L457V/C488A/C584S): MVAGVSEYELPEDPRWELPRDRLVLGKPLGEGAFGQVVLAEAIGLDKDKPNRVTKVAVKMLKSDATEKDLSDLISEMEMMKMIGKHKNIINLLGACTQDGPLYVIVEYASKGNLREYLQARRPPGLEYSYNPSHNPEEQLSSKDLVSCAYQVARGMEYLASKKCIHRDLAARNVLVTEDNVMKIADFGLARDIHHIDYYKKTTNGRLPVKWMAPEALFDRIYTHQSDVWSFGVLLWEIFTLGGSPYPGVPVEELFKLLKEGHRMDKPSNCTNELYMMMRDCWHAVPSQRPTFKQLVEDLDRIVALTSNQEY
Sequence of LCK tyrosine kinase (P06239 223-509 P223M/C224D): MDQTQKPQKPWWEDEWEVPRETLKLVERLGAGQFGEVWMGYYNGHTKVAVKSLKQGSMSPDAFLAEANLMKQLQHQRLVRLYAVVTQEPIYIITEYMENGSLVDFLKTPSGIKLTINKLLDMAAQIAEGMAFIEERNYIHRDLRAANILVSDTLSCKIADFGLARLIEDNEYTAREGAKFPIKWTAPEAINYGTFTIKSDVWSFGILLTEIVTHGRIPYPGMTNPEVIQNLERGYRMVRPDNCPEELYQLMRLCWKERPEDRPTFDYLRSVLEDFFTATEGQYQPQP

On to `O=C(c1cccc(NC(=O)c2cc(Cl)ccn2)c1)c1ccc2c(/C=C/c3ccccn3)n[nH]c2c1` [Reference Example 41(z), 6-[3-((4-chloropyridin-2-yl)carboxamido)benzoyl]-3-E-[2-(pyridin-2-yl)ethenyl]-1H-indazole], for which the pIC50 in assay [1] was 8.12. The inhibition at 1 µM on human FGF-R1 (setting [3]) is 74%; at LCK tyrosine kinase, 54%. The inhibition at 0.05 µM in assay [2] was 100%.

For the compound `CN(O)C(=O)c1ccccc1Sc1ccc2c(/C=C/c3ccccn3)n[nH]c2c1` [Reference Example 35(o), 6-[2-(N-Hydroxy-N-methylcarbamoyl)phenylsufanyl]-3-E-[2-(pyridin-2-yl)ethenyl]-1H-indazole], the inhibition at 1 µM on human FGF-R1 (setting [3]) was determined as 44%; at LCK tyrosine kinase it was 17%. Moreover, the inhibition at 0.05 µM in assay [2] is 39%.

Consider `O=C(Nc1cccc(C(=O)c2ccc3c(/C=C/c4ccccn4)n[nH]c3c2)c1)c1ccnc(Cl)c1` [Reference Example 41(w), 6-[3-((2-chloropyridin-4-yl)carboxamido)benzoyl]-3-E-[2-(pyridin-2-yl)ethenyl]-1H-indazole], for which the pIC50 in assay [1] is about 8.00. In addition, the inhibition at 1 µM on human FGF-R1 (setting [3]) is 67%; on LCK tyrosine kinase it was 49%. The inhibition at 0.05 µM in assay [2] worked out at 97%.

Turning to `Cc1ccc(C(=O)c2ccc3c(/C=C/c4ccccn4)n[nH]c3c2)cc1N` [Reference Example 40(b), 6-(3-Amino-4-methyl-benzoyl)-3-E-[2-(pyridin-2-yl)ethenyl]-1H-indazole], the values for the inhibition at 1 µM on human FGF-R1 (setting [3]) and on LCK tyrosine kinase were 92% and 32%, respectively. In addition, the inhibition at 0.05 µM in assay [2] came out at 89%.

`CNC(=O)c1cccc(F)c1Sc1ccc2c(/C=C/c3ccccn3)n[nH]c2c1` [Reference Example 37(d), 6-[6-Fluoro-2-(methylcarbamoyl)phenylsulfanyl]-3-E-[2-(pyridin-2-yl)ethenyl]-1H-indazole]: the inhibition at 1 µM was determined as 38% on human FGF-R1 (setting [3]) and 10% on LCK tyrosine kinase. Moreover, the inhibition at 0.05 µM in assay [2] was found to be 26%.

Consider `Cc1cc(C(=O)Nc2cccc(C(=O)c3ccc4c(/C=C/c5ccccn5)n[nH]c4c3)c2)cc(Cl)n1` [Reference Example 41(q), 6-[3-((2-chloro-6-methylpyridin-4-yl)carboxamido)benzoyl]-3-E-[2-(pyridin-2-yl)ethenyl]-1H-indazole], for which the figures for the inhibition at 1 µM at human FGF-R1 (setting [3]) and at LCK tyrosine kinase were 91% and 53%, respectively. Further, the inhibition at 0.05 µM in assay [2] came to 100%.

For the compound `O=C(N/N=C/c1ccccn1)c1ccccc1Sc1ccc2c(/C=C/c3ccccn3)n[nH]c2c1` [Reference Example 36(b)], the inhibition at 1 µM at human FGF-R1 (setting [3]) is 43%; at LCK tyrosine kinase, 22%. Also, the inhibition at 0.05 µM in assay [2] is 85%.

As to `N#CCNC(=O)c1ccccc1Sc1ccc2c(/C=C/c3ccccn3)n[nH]c2c1` [Reference Example 35(w), 6-[2-(Cyanomethylcarbamoyl)phenylsulfanyl]-3-E-[2-(pyridin-2-yl)ethenyl]-1H-indazole], in assay [1], the pIC50 was 7.46. Moreover, the inhibition at 0.05 µM in assay [2] was determined as 59%.

Regarding `CC(=O)Nc1cc(C(=O)c2ccc3c(/C=C/c4ccccn4)n[nH]c3c2)c(C)cc1C` [Reference Example 41(nn), 6-(5-acetamido-2,4-dimethylbenzoyl)-3-E-[2-(pyridin-2-yl)ethenyl]-1H-indazole], the inhibition at 1 µM at human FGF-R1 (setting [3]) is 91%; on LCK tyrosine kinase it was 7%. Also, the inhibition at 0.05 µM in assay [2] turned out to be 57%.

For `C(=C\c1n[nH]c2cc(-c3cccnc3)ccc12)/c1ccccc1` [Reference Example 27(e), 6-pyridin-3-yl-3-E-styryl-1H-indazole], the inhibition at 1 µM in assay [2] came to 34%.

With `CC(=O)Nc1cc(C(=O)c2ccc3c(/C=C/c4ccccn4)n[nH]c3c2)ccc1C` [Reference Example 41(gg), 6-(3-acetamido-4-methylbenzoyl)-3-E-[2-(pyridin-2-yl)ethenyl]-1H-indazole], in assay [1], the pIC50 is 8.02. In addition, the inhibition at 0.05 µM in assay [2] was 84%. For the same compound, the inhibition at 1 µM on LCK tyrosine kinase came to 27%.

Take `O=C(Nc1cccc(C(=O)c2ccc3c(/C=C/c4ccccn4)n[nH]c3c2)c1)Oc1ccccc1` [Reference Example 41(cc), 6-[3-(phenoxyamido)benzoyl]-3-E-[2-(pyridin-2-yl)ethenyl]-1H-indazole]: the figures for the inhibition at 1 µM at human FGF-R1 and at LCK tyrosine kinase were 95% and 41%, respectively. The inhibition at 0.05 µM in assay [2] worked out at 97%.

`Oc1ccc(-c2ccc3c(/C=C/c4ccccc4)n[nH]c3c2)cn1` [Reference Example 28(c), 6-(2-hydroxypyridin-5-yl)-3-E-styryl-1H-indazole]: the inhibition at 1 µM in assay [2] was 34%.

As to `O=C(NCc1ccncc1)c1ccccc1Sc1ccc2c(/C=C/c3ccccn3)n[nH]c2c1` [Reference Example 35(p), 6-[2-((Pyrid-4-yl)methylcarbamoyl)phenylsulfanyl]-3-E-[2-(pyridin-2-yl)ethenyl]-1H-indazole], the inhibition at 1 µM at human FGF-R1 (setting [3]) stood at 11%; at LCK tyrosine kinase it was 5%. Besides, the inhibition at 0.05 µM in assay [2] was determined as 62%.

In the case of `NC(=O)c1ccccc1Sc1ccc2c(/C=C/c3ccccn3)n[nH]c2c1` [Reference Example 35(d), 6-(2-Carbamoylphenylsulfanyl)-3-E-[2-(pyridin-2-yl)ethenyl]-1H-indazole], in assay [2], the inhibition at 0.05 µM stood at 76%.

Regarding `CNCCNC(=O)c1ccccc1Sc1ccc2c(/C=C/c3ccccn3)n[nH]c2c1` [Reference Example 35(gg), 6-[2-(2-(methylamino)ethylcarbamoyl)phenylsulfanyl]-3-E-[2-(pyridin-2-yl)ethenyl]-1H-indazole], the inhibition at 0.05 µM in assay [2] worked out at 23%.

Consider `Cc1cc(C)c(C(=O)c2ccc3c(/C=C/c4ccccn4)n[nH]c3c2)cc1N` [Reference Example 40(c), 6-(5-Amino-2,4-dimethyl-benzoyl)-3-E-[2-(pyridin-2-yl)ethenyl]-1H-indazole], for which the inhibition at 1 µM at human FGF-R1 (setting [3]) came to 59%; on LCK tyrosine kinase it was 28%. Further, the inhibition at 0.05 µM in assay [2] stood at 24%.

As to `Cc1cc(C(=O)Nc2cccc(C(=O)c3ccc4c(/C=C/c5ccccn5)n[nH]c4c3)c2)n(C(C)C)n1` [Reference Example 41(x), 6-[3-((1-Isopropyl-3-methyl-1H-pyrazol-5-yl)carboxamido)benzoyl]-3-E-[2-(pyridin-2-yl)ethenyl]-1H-indazole], the pIC50 in assay [1] was 8.34. In addition, in assay [2], the inhibition at 0.05 µM stood at 98%. For the same compound, the inhibition at 1 µM on LCK tyrosine kinase amounted to 66%.

As to `O=C(N/N=C/C(F)(F)F)c1ccccc1Sc1ccc2c(/C=C/c3ccccn3)n[nH]c2c1` [Reference Example 36(c)], the inhibition at 1 µM at human FGF-R1 (setting [3]) was determined as 60%; at LCK tyrosine kinase it was 28%. Moreover, the inhibition at 0.05 µM in assay [2] was 89%.

With `C#CCNC(=O)c1ccccc1C(=O)c1ccc2c(/C=C/c3ccccn3)n[nH]c2c1` [Example 56], the inhibition at 0.05 µM in assay [2] stood at 5%.

For `Cc1cc(C(=O)Nc2cc(Nc3ccc4c(/C=C/c5ccccn5)n[nH]c4c3)c(F)cc2C)n(C)n1` [Example 48(b), 6-[N-(5-((1,3-Dimethyl-1H-pyrazol-5-yl)carboxamido)-2-fluoro-4-methylphenyl)amino]-3-E-[2-(pyridin-2-yl)ethenyl]-1H-indazole], the inhibition at 1 µM at human FGF-R1 (setting [3]) is 77%; on LCK tyrosine kinase, 6%. In assay [2], the inhibition at 0.05 µM was 97%.
